Patent US20150125509A1, “TREATMENT OF FISH POPULATIONS WITH LUFENURON” (priority 2012, published 2015)

Experiments:
[1] = tested on: sea louse; details: injectable, WO99/063824; cited from earlier work
[2] = tested on: L. salmonis; test: Example 2: in-feed treatment in fresh water hatchery, natural sea louse infestation after sea transfer, L. salmonis counts; type: in vivo, Lepeophtheirus salmonis on Atlantic salmon (Salmo salar); details: for L. salmonis: all stages, Treated, counts / L. salmonis: pre- & adults, Efficacy / L. salmonis: pre- & adults, Treated, counts: fresh water
Experimental: Three groups of 400 Atlantic salmon (Salmo salar) of average weight 80 g were treated with medicated pellets containing lufenuron to deliver doses equivalent to 1, 5 and 10 mg/kg/day over 7 consecutive days. A fourth group containing 400 salmon of average weight 80 g was added to the study as a non-treated control group. The medicated pellets were prepared by coating commercially available fish feed pellets with a lufenuron-containing pre-mix to reach a content of 0.005, 0.025 and 0.05% (w/w) lufenuron in the fish feed. The groups were randomized and the identity of the feeds blinded to the site staff. The treatment was undertaken in a fresh water hatchery and the fish transferred to sea water within 7 days of completion of treatment.
On transfer to sea each group was split into two cages and all cage groups were maintained in separate randomized cages.
After treatment, the fish were exposed to natural sea louse infestation. During the study the temperature varied between 1.9 and 8.1° C. Fish weights were assessed at allocation to cages, again approximately 2 weeks after the sea transfer and then at 4 weekly intervals. Sea louse numbers were assessed at approximately 2 weeks after the sea transfer and then at 4 weekly intervals. The numbers of chalimus, pre-adults and adult male, mobile and mature female L. salmonis were recorded for each fish. No distinction was made between chalimus stages I-IV or between pre-adult and adult male stages. Total numbers of Caligus elongatus were also recorded but no significant infestation was established to enable an assessment of efficacy.
Efficacy was calculated using the formula:
% Efficacy=100−(100×mean of treatment group/mean of control).

[3] = 1 mg/kg/day 7 days in-feed, 15 days post sea transfer
[4] = 1 mg/kg/day 7 days in-feed, 42 days post sea transfer
[5] = 1 mg/kg/day 7 days in-feed, 76 days post sea transfer
[6] = 1 mg/kg/day 7 days in-feed, 98 days post sea transfer
[7] = 1 mg/kg/day 7 days in-feed, 125 days post sea transfer
[8] = 1 mg/kg/day 7 days in-feed, 154 days post sea transfer
[9] = 5 mg/kg/day 7 days in-feed, 15 days post sea transfer
[10] = 5 mg/kg/day 7 days in-feed, 76 days post sea transfer
[11] = 5 mg/kg/day 7 days in-feed, 98 days post sea transfer
[12] = 5 mg/kg/day 7 days in-feed, 125 days post sea transfer
[13] = 5 mg/kg/day 7 days in-feed, 154 days post sea transfer
[14] = 10 mg/kg/day 7 days in-feed, 15 days post sea transfer
[15] = 10 mg/kg/day 7 days in-feed, 76 days post sea transfer
[16] = 10 mg/kg/day 7 days in-feed, 98 days post sea transfer
[17] = 10 mg/kg/day 7 days in-feed, 125 days post sea transfer
[18] = 10 mg/kg/day 7 days in-feed, 154 days post sea transfer

O=C(NC(=O)c1c(F)cccc1F)Nc1cc(Cl)c(OC(F)(F)C(F)C(F)(F)F)cc1Cl (centres unmarked) [lufenuron, N-{[2,5-Dichlor-4-(1,1,2,3,3,3-hexafluorpropoxy)phenyl]carbamoyl}-2,6-difluorbenzamid]
92.9%: L. salmonis: pre- & adults, Efficacy [2, 7]
5 months: protected the fish against sea louse infestation until (time post-treatment) ([2]; Example 2, 5 mg/kg treatment, study continues) | protected the fish against sea louse infestation up to (time post-treatment) ([2]; Example 2, 10 mg/kg treatment, study continues)
96.2%: L. salmonis: pre- & adults, Efficacy [2, 5]
0.8: L. salmonis: all stages, Treated, counts [2, 6]
92.8%: L. salmonis: pre- & adults, Efficacy [2, 8]
0: L. salmonis: all stages, Treated, counts [2, 3] | L. salmonis: pre- & adults, Treated, counts [2, 3] | L. salmonis: all stages, Treated, counts [2, 4] | L. salmonis: pre- & adults, Treated, counts [2, 4] | L. salmonis: pre- & adults, Treated, counts [2, 9] | L. salmonis: all stages, Treated, counts [2, 10] | L. salmonis: pre- & adults, Treated, counts [2, 10] | L. salmonis: all stages, Treated, counts [2, 12] | L. salmonis: pre- & adults, Treated, counts [2, 12] | L. salmonis: all stages, Treated, counts [2, 13] | L. salmonis: pre- & adults, Treated, counts [2, 13] | L. salmonis: pre- & adults, Treated, counts [2, 14] | L. salmonis: all stages, Treated, counts [2, 15] | L. salmonis: pre- & adults, Treated, counts [2, 15] | L. salmonis: all stages, Treated, counts [2, 16] | L. salmonis: pre- & adults, Treated, counts [2, 16] | L. salmonis: all stages, Treated, counts [2, 17] | L. salmonis: pre- & adults, Treated, counts [2, 17] | L. salmonis: all stages, Treated, counts [2, 18] | L. salmonis: pre- & adults, Treated, counts [2, 18]
0.3: L. salmonis: pre- & adults, Treated, counts [2, 7] | L. salmonis: all stages, Treated, counts [2, 8] | L. salmonis: pre- & adults, Treated, counts [2, 8]
0.4: L. salmonis: all stages, Treated, counts [2, 7]
0.1: L. salmonis: all stages, Treated, counts [2, 5] | L. salmonis: pre- & adults, Treated, counts [2, 5] | L. salmonis: all stages, Treated, counts [2, 9] | L. salmonis: all stages, Treated, counts [2, 11] | L. salmonis: pre- & adults, Treated, counts [2, 11]
96.4%: L. salmonis: pre- & adults, Efficacy [2, 11]
0.45: L. salmonis: pre- & adults, Treated, counts [2, 6]
0.5: L. salmonis: all stages, Treated, counts [2, 14]
100%: L. salmonis: pre- & adults, Efficacy [2, 3] | L. salmonis: pre- & adults, Efficacy [2, 4] | L. salmonis: pre- & adults, Efficacy [2, 9] | L. salmonis: pre- & adults, Efficacy [2, 10] | L. salmonis: pre- & adults, Efficacy [2, 12] | L. salmonis: pre- & adults, Efficacy [2, 13] | L. salmonis: pre- & adults, Efficacy [2, 14] | L. salmonis: pre- & adults, Efficacy [2, 15] | L. salmonis: pre- & adults, Efficacy [2, 16] | L. salmonis: pre- & adults, Efficacy [2, 17] | L. salmonis: pre- & adults, Efficacy [2, 18]
83.9%: L. salmonis: pre- & adults, Efficacy [2, 6]
128 days: protection against sea louse infestation after injection [1]
five: protected the fish against sea louse infestation until at least (time post-treatment) ([2]; Example 2, 1 mg/kg treatment)
approximately 90%: efficacy over the protection period ([2]; Example 2, 1 mg/kg treatment, until at least five month post-treatment)
